Results taken from US7087762B2, “Long-lasting antimicrobial reaction product of allantoin and formaldehyde containing a low level of free formaldehyde” (ISP Investments Inc., priority 2002, dated 2006).

Assays:
[1] = tested on: SA (Staphylococcus aureus); assay: Preservative challenge test, screening emulsion; type: cell-based
Method: (§1) A typical cosmetic emulsion was prepared for microbiological challenge testing and predetermined admixtures of a methylol compound and IPBC were added at various use levels. The emulsion thus prepared had the following composition:
To prepare the emulsion, Phases A and B were heated separately to 75°–80° C. Phase A then was added to Phase B with mixing. The mixture then was cooled to 55°–60° C. At this point the desired amount of the preservative admixture was added and the product was cooled to 50° C. while stirring. The citric acid solution then was added to adjust the pH and the mixture was stirred until a temperature of 30° C. was reached.
(§2) The challenge tests were carried out using the following microorganisms: SA, ECOLI, PSA, PC, AN and CAN, in this manner. 50 g aliquots of the test emulsion containing various amounts of the preservative admixture were inoculated with approximately 10^7–10^8 of the challenge organisms. The test samples then were stirred to disperse the challenge inoculum. The samples were incubated and assayed at 48 hours, 7, 14, 21 and 28 days. The assays were performed on 1 g of the test sample by serially diluting 10^1 to 10^6 of the original concentration. The plating medium for bacteria was Letheen agar and for fungi it was low pH Mycophil agar with Tween 20. Each plated sample was incubated for 48 hours at 37° C. for bacteria, 5 days at 25° C. for mold, and 3 days at 25° C. for fungi. After incubation, readings of the number of colonies per milliliter (cfu/ml) were made. At 21 days the test product was reinoculated with half of the original inoculum.

[2] = tested on: Escherichia coli ATCC 8739; assay: Minimum Inhibitory Concentration (MIC) test, tube dilution, static and cidal; type: cell-based; settings: E. coli
Method: (§3) The measurement of the lowest effective concentration of an anti-microbial or anti-microbial blend is important for recommending use concentrations. The MIC test is an in vitro tube dilution procedure used to identify effective concentrations of anti-microbials. In this test, the experimental compound is diluted by serial concentrations into nutrient culture media. Test organisms are then inoculated into the anti-microbial solutions.
(§4) If the experimental compound is effective, there is no growth observed in the test dilution tubes and they are clear. If the experimental compound is not effective, the test dilution tubes are cloudy, indicating growth. This test will determine static as well as cidal activity concentrations.
(§5) • 1. Laminar flow hood (Baker Sterilgard SG 400) • 2. 18×150 mm culture tubes • 3. Stock antimicrobial solution • 4. Media: Trypticase soy broth (BBL 11043) and AOAC Letheen broth (BBL 10914) • 5. Test organisms: Staphylococcus aureus ATCC 6538, Escherichia coli ATCC 8739, Pseudomonas aeruginosa ATCC 9027, Burkholderia cepacia ATCC 25416, Candida albicans ATCC 10231, and Aspergillus niger ATCC 16404. • 6. Spectrophotometer (Spectronic 20D, Milton Roy)
(§6) • 1. Antimicrobial stock solutions are prepared at predetermined concentrations (i.e., 10% through 0.07%) depending on the test material. Serial doubling dilutions are made as follows. Each culture tube contains 5 mls of trypticase soy broth. Five mls of the stock solution are added to the first tube and vortexed. 5 mls are then removed and placed into the second tube, (and so on, until the last tube). At the final test concentration, 5 mls of the broth/antimicrobial mixture is decanted out. • 2. The test organisms are prepared as with any organism inoculum (MLM 100-3, MLM 100-4, and MLM 100-5). A saline suspension of each organism is prepared. The bacterial organisms and the yeast are a standardized at a concentration of 1×10^6 cfu/ml. The mold inoculum is approximately 1×10^5 cfu/ml. • 3. Inoculate each culture tube with 0.10 mls of organism inoculum and vortex. • 4. Incubate bacterial tubes for 24 hours at 35° C. Incubate yeast or mold tubes for 48 hours at 25° C. Read for growth; turbid tubes for bacteria and yeast; mold clearly visible tubes. This is the minimum inhibitory concentration (static activity). • 5. After the tubes are read, transfer all “clear” tubes and the first cloudy (growth) tube into Letheen broth containing neutralizers. Incubate the Letheen broth tubes for 48 hours at the bacterial or fungal incubation temperatures. Read for growth; turbid tubes for bacteria and yeast; mold clearly visible in mold tubes. This is the cidal activity concentration. Discussion
(§7) The cidal activity of an anti-microbial can be rapidly screened by means of a MIC test before further evaluation tests, such as longer preservative efficacy tests, are performed. This test is a tube serial dilution procedure limited only by the water solubility of the material. Where anti-microbial materials are slightly insoluble, leaving the TSB broth turbid, a procedure modification can be made. Tubes are incubated for 24 hours (bacteria) or 48 hours (fungi) but instead of transfer to Letheen broth, the TSB tubes are streaked onto Letheen agar. The agar plates are then incubated appropriately and then read for absence or presence of growth. Depending on the degree of insolubility, a measure of cidal activity may be the only parameter measured.
(§8) Anti-microbial neutralization is important in this screening test. […] These are to be determined prior to testing.

[3] = tested on: Aspergillus niger ATCC 16404; assay: as above; type: cell-based; settings: A. niger
Method: as §3, §4, §5, §6, §7, §8

[4] = tested on: Candida albicans ATCC 10231; assay: as above; type: cell-based; settings: C. albicans
Method: as §3, §4, §5, §6, §7, §8

[5] = tested on: Pseudomonas aeruginosa ATCC 9027; assay: as above; type: cell-based; settings: P. aeruginosa
Method: as §3, §4, §5, §6, §7, §8

[6] = tested on: Staphylococcus aureus ATCC 6538; assay: as above; type: cell-based; settings: Staph aureus
Method: as §3, §4, §5, §6, §7, §8

[7] = tested on: Burkholderia cepacia ATCC 25416; assay: as above; type: cell-based; settings: B. cepacia
Method: as §3, §4, §5, §6, §7, §8

A. Niger ATCC 9642 = assay: Activity against yeast and mold, 0.3% test solutions; type: cell-based, Aspergillus niger; design: key: + Growth; − No Growth
From the text: Activity against yeast and mold:

BC (B. cepacia) = assay: Preservative challenge test, nonionic emulsion; type: cell-based, Burkholderia cepacia
Method: as §1, §2

O=C1C(N(CO)C(=O)NCO)N(CO)C(=O)N1CO (stereo not shown) [Germall II]
cfu/ml, 48 hrs ([1]; 250 ppm): 55,000 cfu/ml
cfu/ml, 7 days ([1]; 250 ppm): <10 cfu/ml
cfu/ml, 14 days ([1]; 250 ppm): <10 cfu/ml
cfu/ml, 21 days ([1]; 250 ppm): <10 cfu/ml
cfu/ml, 28 days ([1]; 250 ppm): <10 cfu/ml
cfu/ml, 48 hrs ([1]; 500 ppm): 17,000 cfu/ml
cfu/ml, 7 days ([1]; 500 ppm): <10 cfu/ml
cfu/ml, 14 days ([1]; 500 ppm): <10 cfu/ml
cfu/ml, 21 days ([1]; 500 ppm): <10 cfu/ml
cfu/ml, 28 days ([1]; 500 ppm): <10 cfu/ml
cfu/ml, 48 hrs ([1]; 1000 ppm): <10 cfu/ml
cfu/ml, 7 days ([1]; 1000 ppm): <10 cfu/ml
cfu/ml, 14 days ([1]; 1000 ppm): <10 cfu/ml
cfu/ml, 21 days ([1]; 1000 ppm): <10 cfu/ml
cfu/ml, 28 days ([1]; 1000 ppm): <10 cfu/ml
cfu/ml, 48 hrs ([1]; 2000 ppm): <10 cfu/ml
cfu/ml, 7 days ([1]; 2000 ppm): <10 cfu/ml
cfu/ml, 14 days ([1]; 2000 ppm): <10 cfu/ml
cfu/ml, 21 days ([1]; 2000 ppm): <10 cfu/ml
cfu/ml, 28 days ([1]; 2000 ppm): <10 cfu/ml
CIDAL (cidal activity concentration) [2]: 1250 ppm
STATIC (minimum inhibitory concentration) [2]: 600 ppm
CIDAL (cidal activity concentration) [3]: 2500 ppm
STATIC (minimum inhibitory concentration) [3]: 2500 ppm
CIDAL (cidal activity concentration) [4]: >5000 ppm
STATIC (minimum inhibitory concentration) [4]: 5000 ppm
CIDAL (cidal activity concentration) [5]: 1250 ppm
STATIC (minimum inhibitory concentration) [5]: 600 ppm
CIDAL (cidal activity concentration) [6]: 1250 ppm
STATIC (minimum inhibitory concentration) [6]: 300 ppm
CIDAL (cidal activity concentration) [7]: 600 ppm
STATIC (minimum inhibitory concentration) [7]: 150 ppm
Growth, A. Niger ATCC 9642(for 3 Days) (A. Niger ATCC 9642): −
cfu/ml, 48 hrs (BC (B. cepacia); 2000 ppm): <10 cfu/ml
cfu/ml, 7 days (BC (B. cepacia); 2000 ppm): <10 cfu/ml
cfu/ml, 14 days (BC (B. cepacia); 2000 ppm): <10 cfu/ml
cfu/ml, 21 days (BC (B. cepacia); 2000 ppm): <10 cfu/ml
cfu/ml, 28 days (BC (B. cepacia); 2000 ppm): <10 cfu/ml
cfu/ml, 48 hrs (BC (B. cepacia); 4000 ppm): <10 cfu/ml
cfu/ml, 7 days (BC (B. cepacia); 4000 ppm): <10 cfu/ml
cfu/ml, 14 days (BC (B. cepacia); 4000 ppm): <10 cfu/ml
cfu/ml, 21 days (BC (B. cepacia); 4000 ppm): <10 cfu/ml
cfu/ml, 28 days (BC (B. cepacia); 4000 ppm): <10 cfu/ml
